Assay results from PMC10046369, “Low-Affinity/High-Selectivity Dopamine Transport Inhibition Sufficient to Rescue Cognitive Functions in the Aging Rat” (Biomolecules, 2023).

Assays:
Assay in all cases: biochemical
Parameters in all cases: KINOMEscan competition binding panel, per cent of control
Conditions in all cases: read-out: %Ctrl @ 2800nM
[1] = target: MAST1 (Homo sapiens, UniProt Q9Y2H9)
Summary of the method: (§1)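 Values are expressed as percent of control, calculated as ((test − positive control)/(negative control − positive control)) × 100, so lower numbers mean stronger hits. Binding was measured by KINOMEscan competition assay in a 450-kinase human panel including disease mutants, using the contractor's validated protocol.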

[2] = target: PDGFRB (Homo sapiens, UniProt P09619)
Summary of the method: as §1

[3] = target: CDK7 (Homo sapiens, UniProt P50613)
Summary of the method: as §1

[4] = target: SRC (Homo sapiens, UniProt P12931)
Summary of the method: as §1

[5] = target: T1, ABL1(F317L)-nonphosphorylated (Homo sapiens, UniProt P00519, F317L)
T1 construct: nonphosphorylated
Summary of the method: as §1

[6] = target: PIM2 (Homo sapiens, UniProt Q9P1W9)
Summary of the method: as §1

[7] = target: PRKCI (Homo sapiens, UniProt P41743)
Summary of the method: as §1

[8] = target: RET(V804M) (Homo sapiens, UniProt P07949, V804M)
Summary of the method: as §1

[9] = target: PIK3CA(Q546K) (Homo sapiens, UniProt P42336, Q546K)
Summary of the method: as §1

[10] = target: T2, MRCKA (Homo sapiens, UniProt Q5VT25)
T2 construct: gene CDC42BPA
Summary of the method: as §1

[11] = target: PHKG1 (Homo sapiens, UniProt Q16816)
Summary of the method: as §1

[12] = target: T3, ABL1(Q252H)-phosphorylated (Homo sapiens, UniProt P00519, Q252H)
T3 construct: phosphorylated
Summary of the method: as §1

[13] = target: NEK10 (Homo sapiens, UniProt Q6ZWH5)
Summary of the method: as §1

[14] = target: MAP3K3 (Homo sapiens, UniProt Q99759)
Summary of the method: as §1

[15] = target: PIM1 (Homo sapiens, UniProt P11309)
Summary of the method: as §1

[16] = target: LRRK2 (Homo sapiens, UniProt Q5S007)
Summary of the method: as §1

[17] = target: SYK (Homo sapiens, UniProt P43405)
Summary of the method: as §1

[18] = target: T4, ABL1(Y253F)-phosphorylated (Homo sapiens, UniProt P00519, Y253F)
T4 construct: phosphorylated
Summary of the method: as §1

[19] = target: T5, ASK1 (Homo sapiens, UniProt Q99683)
T5 construct: gene MAP3K5
Summary of the method: as §1

[20] = target: GSK3B (Homo sapiens, UniProt P49841)
Summary of the method: as §1

[21] = target: DDR1 (Homo sapiens, UniProt Q08345)
Summary of the method: as §1

[22] = target: KIT(D816H) (Homo sapiens, UniProt P10721, D816H)
Summary of the method: as §1

[23] = target: T6, CDK4-cyclinD1 (Homo sapiens, UniProt P11802)
T6 construct: cyclinD1
Summary of the method: as §1

[24] = target: SIK2 (Homo sapiens, UniProt Q9H0K1)
Summary of the method: as §1

[25] = target: T7, ERK2 (Homo sapiens, UniProt P28482)
T7 construct: gene MAPK1
Summary of the method: as §1

[26] = target: KIT(A829P) (Homo sapiens, UniProt P10721, A829P)
Summary of the method: as §1

RET(V804M), sequence (P07949 whole entry V804M): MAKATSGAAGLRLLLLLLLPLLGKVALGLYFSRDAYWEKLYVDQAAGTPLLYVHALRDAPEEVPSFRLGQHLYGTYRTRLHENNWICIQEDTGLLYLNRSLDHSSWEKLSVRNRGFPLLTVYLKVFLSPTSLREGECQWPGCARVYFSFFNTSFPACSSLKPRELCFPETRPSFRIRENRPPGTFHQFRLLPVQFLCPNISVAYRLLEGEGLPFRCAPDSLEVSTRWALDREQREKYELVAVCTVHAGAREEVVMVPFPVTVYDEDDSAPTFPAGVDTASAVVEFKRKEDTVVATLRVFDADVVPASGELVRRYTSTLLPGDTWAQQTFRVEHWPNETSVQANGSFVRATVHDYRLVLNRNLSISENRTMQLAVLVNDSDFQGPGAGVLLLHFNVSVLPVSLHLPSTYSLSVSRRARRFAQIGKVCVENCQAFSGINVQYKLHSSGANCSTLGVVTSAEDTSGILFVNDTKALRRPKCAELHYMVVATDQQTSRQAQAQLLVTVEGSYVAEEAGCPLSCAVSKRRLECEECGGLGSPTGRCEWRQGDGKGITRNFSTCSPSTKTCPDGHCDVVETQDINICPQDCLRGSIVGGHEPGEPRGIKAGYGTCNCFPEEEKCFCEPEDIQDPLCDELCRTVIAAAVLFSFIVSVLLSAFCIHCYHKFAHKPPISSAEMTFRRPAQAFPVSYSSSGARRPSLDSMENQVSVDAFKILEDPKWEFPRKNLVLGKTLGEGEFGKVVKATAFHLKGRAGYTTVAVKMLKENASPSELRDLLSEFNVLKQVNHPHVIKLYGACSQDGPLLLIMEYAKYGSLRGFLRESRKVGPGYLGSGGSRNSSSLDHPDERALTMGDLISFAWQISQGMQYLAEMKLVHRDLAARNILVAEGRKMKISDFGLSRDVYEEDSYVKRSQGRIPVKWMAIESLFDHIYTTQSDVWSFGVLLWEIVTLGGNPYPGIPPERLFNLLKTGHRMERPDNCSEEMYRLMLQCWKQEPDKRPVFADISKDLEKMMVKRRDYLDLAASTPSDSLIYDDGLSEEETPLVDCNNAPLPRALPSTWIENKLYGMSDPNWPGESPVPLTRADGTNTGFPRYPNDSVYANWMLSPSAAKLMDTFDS
T6 sequence (P11802 whole entry): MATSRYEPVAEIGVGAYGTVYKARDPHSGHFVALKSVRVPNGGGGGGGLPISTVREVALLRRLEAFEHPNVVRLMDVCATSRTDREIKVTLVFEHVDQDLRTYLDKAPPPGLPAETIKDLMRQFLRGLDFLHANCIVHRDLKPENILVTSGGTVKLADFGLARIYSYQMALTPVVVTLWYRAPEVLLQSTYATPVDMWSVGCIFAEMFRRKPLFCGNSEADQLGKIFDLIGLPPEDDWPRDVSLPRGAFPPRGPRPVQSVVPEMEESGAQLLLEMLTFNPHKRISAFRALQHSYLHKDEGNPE
T6 sequence (P24385 whole entry partner): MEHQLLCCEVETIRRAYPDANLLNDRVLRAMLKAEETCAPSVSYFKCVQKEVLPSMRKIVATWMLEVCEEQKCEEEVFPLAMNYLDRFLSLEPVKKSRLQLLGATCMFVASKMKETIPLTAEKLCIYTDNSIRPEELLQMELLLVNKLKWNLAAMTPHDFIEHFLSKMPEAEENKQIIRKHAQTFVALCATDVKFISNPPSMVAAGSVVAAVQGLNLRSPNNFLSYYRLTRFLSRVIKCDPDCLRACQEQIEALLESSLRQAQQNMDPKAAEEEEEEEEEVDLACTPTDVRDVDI
SIK2, sequence (Q9H0K1 whole entry): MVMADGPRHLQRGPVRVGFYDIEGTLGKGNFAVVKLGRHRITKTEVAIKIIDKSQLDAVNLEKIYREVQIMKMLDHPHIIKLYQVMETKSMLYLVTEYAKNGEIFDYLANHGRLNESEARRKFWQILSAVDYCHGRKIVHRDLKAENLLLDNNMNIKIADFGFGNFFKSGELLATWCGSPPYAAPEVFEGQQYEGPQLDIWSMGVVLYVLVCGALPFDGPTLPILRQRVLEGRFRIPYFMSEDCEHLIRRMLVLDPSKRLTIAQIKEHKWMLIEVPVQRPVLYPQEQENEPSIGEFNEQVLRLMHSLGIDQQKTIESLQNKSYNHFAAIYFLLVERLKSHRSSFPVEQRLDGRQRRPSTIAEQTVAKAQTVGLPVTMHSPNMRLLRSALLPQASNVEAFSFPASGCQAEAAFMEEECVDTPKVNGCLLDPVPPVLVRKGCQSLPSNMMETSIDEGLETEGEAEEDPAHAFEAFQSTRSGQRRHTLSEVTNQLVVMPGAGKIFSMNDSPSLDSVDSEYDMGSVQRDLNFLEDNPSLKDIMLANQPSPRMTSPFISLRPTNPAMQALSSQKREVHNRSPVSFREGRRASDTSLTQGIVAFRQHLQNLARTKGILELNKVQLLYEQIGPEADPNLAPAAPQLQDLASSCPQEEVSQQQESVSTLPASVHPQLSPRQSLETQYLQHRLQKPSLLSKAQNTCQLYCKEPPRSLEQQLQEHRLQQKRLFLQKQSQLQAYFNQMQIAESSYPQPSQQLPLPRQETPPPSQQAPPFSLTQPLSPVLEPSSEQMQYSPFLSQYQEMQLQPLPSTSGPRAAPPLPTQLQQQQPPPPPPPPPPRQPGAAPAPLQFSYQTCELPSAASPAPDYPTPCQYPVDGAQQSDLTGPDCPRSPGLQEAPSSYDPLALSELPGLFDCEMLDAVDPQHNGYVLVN
NEK10, sequence (Q6ZWH5 whole entry): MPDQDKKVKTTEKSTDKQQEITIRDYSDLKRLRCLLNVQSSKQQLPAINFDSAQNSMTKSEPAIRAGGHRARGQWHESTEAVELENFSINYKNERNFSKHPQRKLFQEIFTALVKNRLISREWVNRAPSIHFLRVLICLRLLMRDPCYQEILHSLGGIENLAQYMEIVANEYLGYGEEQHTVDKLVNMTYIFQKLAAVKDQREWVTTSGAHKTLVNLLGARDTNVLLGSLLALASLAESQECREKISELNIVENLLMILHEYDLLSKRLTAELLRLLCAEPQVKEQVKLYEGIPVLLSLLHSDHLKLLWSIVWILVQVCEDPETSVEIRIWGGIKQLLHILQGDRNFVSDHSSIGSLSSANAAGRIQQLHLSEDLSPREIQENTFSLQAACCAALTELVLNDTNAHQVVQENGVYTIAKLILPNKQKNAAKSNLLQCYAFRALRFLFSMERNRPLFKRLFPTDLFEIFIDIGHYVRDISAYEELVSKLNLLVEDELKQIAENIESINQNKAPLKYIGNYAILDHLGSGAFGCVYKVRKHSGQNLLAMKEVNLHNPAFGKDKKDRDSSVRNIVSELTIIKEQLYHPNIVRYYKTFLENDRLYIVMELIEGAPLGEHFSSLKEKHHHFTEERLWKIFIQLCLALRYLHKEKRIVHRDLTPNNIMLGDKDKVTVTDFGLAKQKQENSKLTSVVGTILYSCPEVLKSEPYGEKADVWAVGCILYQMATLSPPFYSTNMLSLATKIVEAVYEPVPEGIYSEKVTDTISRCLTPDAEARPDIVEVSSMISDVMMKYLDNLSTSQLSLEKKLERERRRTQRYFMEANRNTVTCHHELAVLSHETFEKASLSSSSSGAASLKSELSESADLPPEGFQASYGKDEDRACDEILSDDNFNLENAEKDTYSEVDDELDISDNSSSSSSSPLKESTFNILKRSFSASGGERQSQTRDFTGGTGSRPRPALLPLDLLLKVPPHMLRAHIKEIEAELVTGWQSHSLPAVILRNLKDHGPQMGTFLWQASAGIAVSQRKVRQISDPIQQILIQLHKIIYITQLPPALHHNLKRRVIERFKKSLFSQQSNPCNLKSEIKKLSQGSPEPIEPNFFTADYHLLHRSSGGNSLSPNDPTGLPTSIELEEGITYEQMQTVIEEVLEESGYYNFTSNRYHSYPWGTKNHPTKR
PIK3CA(Q546K), sequence (P42336 whole entry Q546K): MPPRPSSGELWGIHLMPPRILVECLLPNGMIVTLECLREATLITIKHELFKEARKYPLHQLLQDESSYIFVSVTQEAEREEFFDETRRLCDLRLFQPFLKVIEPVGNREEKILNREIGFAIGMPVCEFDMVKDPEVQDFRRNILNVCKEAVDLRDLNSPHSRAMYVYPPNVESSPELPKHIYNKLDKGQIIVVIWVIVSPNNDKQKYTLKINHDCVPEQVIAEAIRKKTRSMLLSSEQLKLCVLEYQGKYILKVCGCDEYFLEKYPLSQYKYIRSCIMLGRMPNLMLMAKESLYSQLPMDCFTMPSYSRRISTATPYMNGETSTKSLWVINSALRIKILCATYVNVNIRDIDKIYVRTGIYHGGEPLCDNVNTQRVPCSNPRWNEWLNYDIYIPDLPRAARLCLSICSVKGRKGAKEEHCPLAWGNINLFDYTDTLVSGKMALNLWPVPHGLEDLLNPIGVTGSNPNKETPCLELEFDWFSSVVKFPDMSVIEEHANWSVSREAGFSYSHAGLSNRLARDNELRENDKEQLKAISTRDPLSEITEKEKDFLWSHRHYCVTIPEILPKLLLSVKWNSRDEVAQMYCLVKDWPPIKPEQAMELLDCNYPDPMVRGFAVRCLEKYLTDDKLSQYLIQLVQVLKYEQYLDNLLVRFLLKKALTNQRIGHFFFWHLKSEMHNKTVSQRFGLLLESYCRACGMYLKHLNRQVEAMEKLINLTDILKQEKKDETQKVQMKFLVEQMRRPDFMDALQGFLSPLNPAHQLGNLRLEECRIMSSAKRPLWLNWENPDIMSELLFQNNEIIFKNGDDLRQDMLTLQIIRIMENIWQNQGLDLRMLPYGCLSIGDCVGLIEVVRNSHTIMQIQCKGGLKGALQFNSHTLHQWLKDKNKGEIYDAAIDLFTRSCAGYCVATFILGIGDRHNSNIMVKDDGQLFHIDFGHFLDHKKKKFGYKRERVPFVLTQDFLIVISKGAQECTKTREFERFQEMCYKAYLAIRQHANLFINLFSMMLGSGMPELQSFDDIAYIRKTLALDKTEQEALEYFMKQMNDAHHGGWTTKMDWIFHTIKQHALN

## [O-][S@@+](Cc1cncs1)C(c1ccccc1)c1ccccc1 [S-CE-123, (S)-5-((Benzhydrylsulfinyl)Methyl)Thiazole]
[1]
  remaining binding at 2.8 µM: 94%
[2]
  remaining binding at 2.8 µM: 99%
[3]
  remaining binding at 2.8 µM: 70%
[4]
  remaining binding at 2.8 µM: 100%
[5]
  remaining binding at 2.8 µM: 100%
[6]
  remaining binding at 2.8 µM: 100%
[7]
  remaining binding at 2.8 µM: 100%
[8]
  remaining binding at 2.8 µM: 95%
[9]
  remaining binding at 2.8 µM: 97%
[10]
  remaining binding at 2.8 µM: 95%
[11]
  remaining binding at 2.8 µM: 100%
[12]
  remaining binding at 2.8 µM: 84%
[13]
  remaining binding at 2.8 µM: 100%
[14]
  remaining binding at 2.8 µM: 86%
[15]
  remaining binding at 2.8 µM: 100%
[16]
  remaining binding at 2.8 µM: 100%
[17]
  remaining binding at 2.8 µM: 100%
[18]
  remaining binding at 2.8 µM: 93%
[19]
  remaining binding at 2.8 µM: 84%
[20]
  remaining binding at 2.8 µM: 92%
[21]
  remaining binding at 2.8 µM: 100%
[22]
  remaining binding at 2.8 µM: 100%
[23]
  remaining binding at 2.8 µM: 100%
[24]
  remaining binding at 2.8 µM: 100%
[25]
  remaining binding at 2.8 µM: 95%
[26]
  remaining binding at 2.8 µM: 98%
